2PT, Papp and Ki data for 12 compounds are collected here from ChEMBL document CHEMBL3414465, “Discovery of novel P1 groups for coagulation factor VIIa inhibition using fragment-based screening” (J Med Chem, 2015).

For orientation: pKi means the Ki on a negative log10 scale, so that one unit is a factor of ten. The low end stands for a high Ki, the high end for a low Ki.

pKi: −log10 of the molar value.

Coagulation factor VII/tissue factor, sequence (P08709 61-212 limits assumed): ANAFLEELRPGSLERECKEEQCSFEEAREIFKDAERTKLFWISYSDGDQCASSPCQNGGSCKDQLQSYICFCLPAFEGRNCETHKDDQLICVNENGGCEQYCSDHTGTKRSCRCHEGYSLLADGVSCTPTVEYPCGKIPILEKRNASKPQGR
Coagulation factor VII/tissue factor, sequence (P08709 213-466 limits assumed): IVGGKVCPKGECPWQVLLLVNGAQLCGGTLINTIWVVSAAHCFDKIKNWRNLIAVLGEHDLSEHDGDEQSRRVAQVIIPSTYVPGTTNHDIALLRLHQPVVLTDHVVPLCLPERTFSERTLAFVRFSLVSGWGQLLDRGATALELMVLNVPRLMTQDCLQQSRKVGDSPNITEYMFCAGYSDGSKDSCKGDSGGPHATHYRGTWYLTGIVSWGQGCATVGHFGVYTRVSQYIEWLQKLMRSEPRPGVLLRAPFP
Coagulation factor VII/tissue factor, sequence (P13726 33-295 partner limits assumed): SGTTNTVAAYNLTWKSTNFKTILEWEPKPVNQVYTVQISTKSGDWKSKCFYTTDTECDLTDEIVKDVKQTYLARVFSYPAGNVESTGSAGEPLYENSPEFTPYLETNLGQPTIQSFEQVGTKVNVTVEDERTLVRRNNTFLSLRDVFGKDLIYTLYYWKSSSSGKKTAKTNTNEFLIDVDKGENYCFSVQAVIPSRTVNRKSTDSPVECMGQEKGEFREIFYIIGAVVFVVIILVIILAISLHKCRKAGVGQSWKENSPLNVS

For one data set, the system named is Plasma. Description: Anticoagulant activity in factor VII-deficient human plasma assessed as concentration required to prolong clotting time by two-fold. The format is functional.
Conditions: not given
As for `COC(=O)Nc1ccc(S(=O)(=O)C(C)C)c([C@H]2CCCN2C(=O)[C@H](Nc2ccc3c(c2)C(=O)NCC3)c2cc(OC)c(OC)cc2F)c1`, the 2PT is 160 µM.

System in a further data set: not listed separately
Description: Permeability of the compound after 4 hrs by PAMPA. The format is ADME. Particulars: read-out: permeability. A general note: The PAMPA barrier holds no transporters, so it reflects passive diffusion.
For the compound `COC(=O)Nc1ccc(S(=O)(=O)C(C)C)c([C@H]2CCCN2C(=O)[C@H](Nc2ccc3c(c2)C(=O)NCC3)c2cc(OC)c(OC)cc2F)c1`, the Papp at 4 h was 1.8 ×10⁻⁶ cm/s.

The next data set concerns the target Coagulation factor VII/tissue factor (Homo sapiens, UniProt P08709). Description: Inhibition of human soluble tissue factor/factor VIIa expressed in Origami B (DE3) using D-Ile-Pro-Arg-pNA as substrate after 30 mins by spectrophotometric analysis.
Conditions: not given
Turning to `COC(=O)Nc1ccc(S(=O)(=O)C(C)C)c([C@H]2CCCN2C(=O)[C@H](Nc2ccc3c(c2)C(=O)NCC3)c2cc(OC)c(OC)cc2F)c1`, the pKi was 6.89.

Turning to `CC(O)c1cccc2ccccc12` (centres undefined), the pKi is 1.80.

On to `COc1cc(Br)ccc1O`, for which the pKi is 1.89.

`OCc1ccc(Cl)cc1Cl` [DICHLOROBENZYL ALCOHOL]: the negative-log Ki (pKi) was 1.89.

Take `NC(=O)c1cccnc1` [NIACINAMIDE]: the negative-log Ki (pKi) was 2.10.

In turn, `O=C(O)c1cc2cc(Cl)ccc2[nH]1` [5-CHLOROINDOLE-2-CARBOXYLIC ACID] gave a pKi of 2.46.

Compound `N=C(N)c1ccccc1` [BENZAMIDINE] had a pKi of 3.62.

`O=C(O)c1c[nH]c2ccc(Cl)cc12` gave a pKi of 2.24.

Consider `COC(=O)c1cccc2[nH]ccc12`, for which the negative logarithm of the Ki (pKi) was 1.89.

`COc1cc(Cl)ccc1O`: the pKi is 1.80.

As to `Clc1ccc2[nH]ccc2c1`, the pKi is 2.37.

Compound `Clc1ccc2[nH]nnc2c1` showed a pKi of 2.06.
